In US4220644A, “7-Acylamino-3-(substituted tetrazolyl thiomethyl) cephalosporins” (SmithKline Corporation, priority 1976, dated 1980):
Converted amounts (≈) assume the structure as drawn. Where two headings read alike, the source gives them in different places.

Key:
Shigella HH 117 = assay: MIC in vitro (Table 1), Shigella HH 117; type: cell-based
Description: (§1) The compounds of Formula I have antibacterial activity against both Gram-positive and Gram-negative organisms. […] Compound names corresponding to numbers are given in the experimental section. For comparative purposes, data for cephamandole, which is 7-mandelamido-3-(1-methyltetrazol-5-ylthiomethyl)-3-cephem-4-carboxylic acid, is also given in Tables 1 and 2.

E. coli SK 12140 = assay: MIC in vitro (Table 1), E. coli SK 12140; type: cell-based; settings: Escherichia coli, SK12140, in vitro
Description: (§2) Compound names corresponding to numbers are given in the experimental section. For comparative purposes, data for cephamandole, which is 7-mandelamido-3-(1-methyltetrazol-5-ylthiomethyl)-3-cephem-4-carboxylic acid, is also given in Tables 1 and 2.

Entero. cloacae HH 31254 = assay: MIC in vitro (Table 1), Entero. cloacae HH 31254; type: cell-based; settings: Enterobacter cloacae
Description: as §2

[1] = system: Entero. aerog. ATCC 13048; assay: MIC in vitro (Table 1), Entero. aerog. ATCC 13048; type: cell-based
Description: as §2

Kleb. pneumo. 4200 = assay: In vivo mouse protection (Table 2), Kleb. pneumo. 4200
Description: as §2

S. aureus HH 127 = assay: MIC in vitro (Table 1), S. aureus HH 127; type: cell-based; settings: Staphylococcus aureus
Description: as §2

Serra. Marc. ATCC 13880 = assay: MIC in vitro (Table 1), Serra. Marc. ATCC 13880; type: cell-based
Description: as §2

E. coli HH 33779 = assay: MIC in vitro (Table 1), E. coli HH 33779; type: cell-based; settings: E. coli HH 33779
Description: as §2

Salmonella ATCC 12176 = assay: MIC in vitro (Table 1), Salmonella ATCC 12176; type: cell-based
Description: as §1

Kleb. pneumo. SK 1200 = assay: MIC in vitro (Table 1), Kleb. pneumo. SK 1200; type: cell-based
Description: as §2

S. aureus SK 23390 = assay: MIC in vitro (Table 1), S. aureus SK 23390; type: cell-based; settings: Staphylococcus aureus
Description: as §2

Proteus morgani 179 = assay: MIC in vitro (Table 1), Proteus morgani 179; type: cell-based
Description: as §2

Pseudo. sp. HH 63 = assay: MIC in vitro (Table 1), Pseudo. sp. HH 63; type: cell-based; settings: in vitro, Pseudo. sp. HH 63; read-out: MIC
Description: as §1

Strep. Faecalis HH 34358 = assay: MIC in vitro (Table 1), Strep. Faecalis HH 34358; type: cell-based; settings: in vitro, Strep. Faecalis HH 34358
Description: as §2

Kleb. pneumo. SK 4200 = assay: MIC in vitro (Table 1), Kleb. pneumo. SK 4200; type: cell-based
Description: as §2

E. coli 12140 = assay: In vivo mouse protection (Table 2), E. coli 12140
Description: as §2

[2] = Shigella, HH117, in vitro, read-out: MIC
[3] = HH127, in vitro, S. aureus HH 127, read-out: MIC
[4] = in vitro, Serra. Marc. ATCC 13880, read-out: MIC
[5] = Escherichia coli, HH33779, in vitro, read-out: MIC
[6] = Salmonella, ATCC12176, in vitro, read-out: MIC
[7] = SK23390, in vitro, S. aureus SK 23390, read-out: MIC
[8] = Enterococcus faecalis, read-out: MIC
[9] = in vitro, Kleb. pneumo. SK 4200, read-out: MIC
[10] = Escherichia coli, 12140, po, E. coli 12140, p.o.
[11] = Escherichia coli, 12140, sc, E. coli 12140, s.c.

| SMILES | MIC (Shigella HH 117; [2]) [µg/mL] | MIC (E. coli SK 12140; read-out: MIC) [µg/mL] | MIC (Entero. cloacae HH 31254; HH31254) [µg/mL] | ED50 (Kleb. pneumo. 4200; po, Kleb. pneumo. 4200, p.o.) [mg/kg] | ED50 (Kleb. pneumo. 4200; sc, Kleb. pneumo. 4200, s.c.) [mg/kg] | MIC (S. aureus HH 127; [3]) [µg/mL] | MIC (Serra. Marc. ATCC 13880; [4]) [µg/mL] | MIC (E. coli HH 33779; [5]) [µg/mL] | MIC (Salmonella ATCC 12176; [6]) [µg/mL] | MIC (Kleb. pneumo. SK 1200; read-out: MIC) [µg/mL] | MIC (S. aureus SK 23390; [7]) [µg/mL] | MIC (Proteus morgani 179; read-out: MIC) [µg/mL] | MIC (Pseudo. sp. HH 63) [µg/mL] | MIC (Strep. Faecalis HH 34358; [8]) [µg/mL] | MIC (Kleb. pneumo. SK 4200; [9]) [µg/mL] | MIC (E. coli SK 12140) [µg/mL] | MIC (Serra. Marc. ATCC 13880) [µg/mL] | ED50 (E. coli 12140; [10]) [mg/kg] | ED50 (E. coli 12140; [11]) [mg/kg] | MIC (Strep. Faecalis HH 34358) [µg/mL] | also measured |
| --- | --- | --- | --- | --- | --- | --- | --- | --- | --- | --- | --- | --- | --- | --- | --- | --- | --- | --- | --- | --- | --- |
| NC(=O)Cn1nnnc1SCC1=C(C(=O)O)N2C(=O)C(NC(=O)[C@H](N)c3ccc(O)cc3)[C@H]2SC1 (stereo partly drawn) [VI, 7-(D-α-Amino-4-hydroxyphenylacetamido) -3-(1-carbamoylmethyltetrazol-5-ylthiomethyl) -3-cephem-4-carboxylic acid] | 3.1 (≈ 5.96 µM) | 6.3 (≈ 12.1 µM) | 3.1 (≈ 5.96 µM) | 4 | 0.92 | 6.3 (≈ 12.1 µM) | 100 (≈ 192 µM) | 6.3 (≈ 12.1 µM) | 1.6 (≈ 3.07 µM) | 6.3 (≈ 12.1 µM) | 6.3 (≈ 12.1 µM) | 50 (≈ 96.1 µM) | > 200 | 50 (≈ 96.1 µM) | 12.5 (≈ 24 µM) |  |  |  |  |  | MIC ([1]; in vitro, Entero. aerog. ATCC 13048, read-out: MIC): 6.3 µg/mL (≈ 12.1 µM) |
| NC(=O)CCn1nnnc1SCC1=C(C(=O)O)N2C(=O)C(NC(=O)[C@H](O)c3ccccc3)[C@H]2SC1 (stereo partly drawn) [VII, 7-D-Mandelamido-3-[1-(2-carbamoylethyl)tetrazol-5-ylthiomethyl]-3-cephem-4-carboxylic acid] | 0.2 (≈ 0.385 µM) | 0.8 (≈ 1.54 µM) | 0.4 (≈ 0.77 µM) | 17 | 0.78 |  | 50 (≈ 96.2 µM) | 1.6 (≈ 3.08 µM) | 0.2 (≈ 0.385 µM) | 0.8 (≈ 1.54 µM) | 0.8 (≈ 1.54 µM) | 1.6 (≈ 3.08 µM) | > 200 | 12.5 (≈ 24.1 µM) | 0.8 (≈ 1.54 µM) | 0.4 (≈ 0.77 µM) | 6.3 (≈ 12.1 µM) | 25 | 0.86 | 25 (≈ 48.1 µM) | MIC (Shigella HH 117; in vitro): 0.4 µg/mL (≈ 0.77 µM); MIC (Entero. cloacae HH 31254; HH31254, in vitro, Entero. cloacae HH 31254, read-out: MIC): 1.6 µg/mL (≈ 3.08 µM); MIC (E. coli HH 33779; in vitro): 3.1 µg/mL (≈ 5.97 µM); MIC (S. aureus SK 23390; SK23390): 0.4 µg/mL (≈ 0.77 µM); MIC (Proteus morgani 179): 0.8 µg/mL (≈ 1.54 µM); MIC (Kleb. pneumo. SK 4200): 0.4 µg/mL (≈ 0.77 µM) |
| O=C(O)CCn1nnnc1SCC1=C(C(=O)O)N2C(=O)C(NC(=O)[C@H](O)c3ccccc3)[C@H]2SC1 (stereo partly drawn) [VIII, 7-D-Mandelamido-3-[1-(2-carboxyethyl)tetrazol-5-ylthiomethyl]-3-cephem-4-carboxylic acid] | 0.8 (≈ 1.54 µM) | 1.6 (≈ 3.07 µM) | 3.1 (≈ 5.96 µM) | 25 | 0.46 | 1.6 (≈ 3.07 µM) | 50 (≈ 96.1 µM) |  | 0.8 (≈ 1.54 µM) | 1.6 (≈ 3.07 µM) |  | 6.3 (≈ 12.1 µM) | > 200 | 50 (≈ 96.1 µM) | 0.8 (≈ 1.54 µM) | 0.4 (≈ 0.768 µM) | 12.5 (≈ 24 µM) | 50 | 0.86 | 100 (≈ 192 µM) | MIC [1]: 3.1 µg/mL (≈ 5.96 µM); MIC (S. aureus HH 127; HH127): 3.1 µg/mL (≈ 5.96 µM); MIC (Serra. Marc. ATCC 13880; in vitro, Serra. Marc. ATCC 13880): 100 µg/mL (≈ 192 µM); MIC (Salmonella ATCC 12176; in vitro): 0.4 µg/mL (≈ 0.768 µM); MIC (Kleb. pneumo. SK 1200): 0.8 µg/mL (≈ 1.54 µM); MIC (Kleb. pneumo. SK 4200; in vitro, Kleb. pneumo. SK 4200): 1.6 µg/mL (≈ 3.07 µM) |
